In experiment [1] the test system is HCC1428 breast cancer model. The experiment in a line: In vivo efficacy (tumor growth inhibition) in the HR+/HER2− HCC1428 breast cancer model. Also noted: species or system female NSG mice.
Procedure: HCC1428 cells (ATCC, CRL-2327) were maintained in PRMI-1640 medium, plus 10% FBS until ready for implant. HCC1428 model was established by serial in vivo propagation. To establish the HCC1428 donor mice, tumor cells (5×10^6 cell/mouse with 50% Cultrex® Basement Membrane Matrix) were subcutaneously implanted in female NSG mice with estrogen supplementation (SC implanted, in 0.36 mg 90-day release, Innovative Research of America, cat #NE-121). Once reaching a range of 700 to 800 mm3, donor tumors were subsequently transplanted into secondary recipient mice for a study expansion. In this study, the HCC1428 model was established by implanting passage 4 tumor fragments into recipient mice. […] TGI was assessed on Day 36 post first dose.
Tumor volume and body weights were measured twice a week after dosing initiation. Tumor volume i was calculated using the [(Length×Width×Width)/2)] formula. TGI was calculated as 100*(1−ΔT/ΔC). […]
Experiment [2] deals with ST941 PDX breast cancer model. The experiment in a line: In vivo efficacy (tumor growth inhibition) in the HR+/HER2− ST941 PDX model. More on the design: species or system female athymic nude mice.
Procedure: The HR+/HER2− PDX studies were performed at START (San Antonio, TX) using female athymic nude mice (Foxn1nu/Foxn1nu, JAX Laboratories). Mice received 8.5 μg/mL β estradiol drinking water during study. The live donor mice were established by implanting cryopreserved tumor fragments (around 70 mg). Once ready, the donor tumor fragments were subsequently transplanted into secondary recipient mice for a study expansion.
Palbocidib was dosed twice daily (7 hr apart). PF-06821497 and vehicle was dosed once daily. Fulvestrant was administered twice in the first week, then weekly afterwards. TGI was assessed on Day 36 post first dose.
Tumor volume and body weights were measured twice a week after dosing initiation. Tumor volume i was calculated using the [(Length×Width×Width)/2)] formula. TGI was calculated as 100*(1−ΔT/ΔC). The ΔC (ΔT) was obtained by subtracting the mean tumor burden in the vehicle (treated) group on the first day of treatment (Day 0) from the mean tumor burden in vehicle (treated) group on the assessment day. All mice received treatment continuously until the day of efficacy assessment. Statistical analysis was performed in GraphPad Prism with an unpaired t test, followed by Mann-Whitney test.
The ST941 tumor bearing mice were randomized into 4 groups when the mean tumor volume reached around 177 mm3 and subsequently treated.

For `COc1cc(C)[nH]c(=O)c1CN1CCc2c(Cl)cc([C@H](OC)C3COC3)c(Cl)c2C1=O` [PF-06821497, 5,8-dichloro-2-[(4-methoxy-6-methyl-2-oxo-1,2-dihydro-pyridin-3-yl)methyl]-7-[(R)-methoxy(oxetan-3-yl)methyl]-3,4-dihydroisoquinolin-1(2H)-one], the “% TGI (D36)” value in experiment [1] (Day 36 post first dose, TGI = 100*(1−ΔT/ΔC), doses and schedules per Table 1) amounted to 55%. For the same molecule, the “antitumor efficacy vs vehicle” value in experiment [1] (p<0.05 vs vehicle) and in experiment [2] (p<0.05 vs vehicle) was “significant antitumor efficacy” in each case. For the same molecule, the “% TGI (D18)” value in experiment [2] (TGI = 100*(1−ΔT/ΔC), doses and schedules per Table 2) came to 44.6%.

The record behind these values is US20250049802A1, “COMBINATION THERAPIES AND USES FOR TREATING CANCER” (Pfizer Inc., priority 2021, published 2025).
